Measured values from PubChem BioAssay AID248 (DTP/NCI, 2004).
“And” between values parts separate entries of the source, which are not always exact repeats. Identical values can stand only once. Inconclusive results and toxic doses are left out. Rule as the data show it: active = T/C of 150% or more; inactive = T/C below 125%.

Test system: L1210 leukemia ip in BDF1 mice, survival T/C
Experiment: NCI In Vivo Anticancer Drug Screen. Data for tumor model L1210 Leukemia (intraperitoneal) in B6D2F1 (BDF1) mice
Conditions: endpoint: mean survival time, higher = longer survival
Procedure, shortened: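 Transplanted-tumor mice were given test agent; controls received vehicle only. Survival readings from the two groups were divided (treated over control).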

[1] = dose: 100.0 mg/kg/injection, schedule: Q04DX003 (ip), vehicle: saline with Tween-80
[2] = dose: 200.0 mg/kg/injection, schedule: Q04DX003 (ip), vehicle: saline with Tween-80
[3] = dose: 400.0 mg/kg/injection, schedule: Q04DX003 (ip), vehicle: saline with Tween-80
[4] = dose: 100.0 mg/kg/injection, schedule: Q01DX001 (ip), vehicle: saline
[5] = dose: 100.0 mg/kg/injection, schedule: Q04DX003 (ip), vehicle: saline
[6] = dose: 200.0 mg/kg/injection, schedule: Q01DX001 (ip), vehicle: saline
[7] = dose: 400.0 mg/kg/injection, schedule: Q01DX001 (ip), vehicle: saline
[8] = dose: 75.0 mg/kg/injection, schedule: Q01DX001 (ip), vehicle: saline
[9] = dose: 100.0 mg/kg/injection, schedule: Q01DX009 (ip), vehicle: Klucel (hydroxypropylcellulose) (HPC)
[10] = dose: 200.0 mg/kg/injection, schedule: Q01DX009 (ip), vehicle: Klucel (hydroxypropylcellulose) (HPC)
[11] = dose: 400.0 mg/kg/injection, schedule: Q01DX009 (ip), vehicle: Klucel (hydroxypropylcellulose) (HPC)
[12] = dose: 100.0 mg/kg/injection, schedule: Q01DX001 (ip), vehicle: carboxymethylcellulose (CMC)
[13] = dose: 200.0 mg/kg/injection, schedule: Q01DX001 (ip), vehicle: carboxymethylcellulose (CMC)
[14] = dose: 400.0 mg/kg/injection, schedule: Q01DX001 (ip), vehicle: carboxymethylcellulose (CMC)
[15] = dose: 50.0 mg/kg/injection, schedule: Q01DX001 (ip), vehicle: saline

Measured: T/C

O=C(c1ccccc1)C(C(O)CCl)C(O)(C(F)(F)F)C(F)(F)F (configuration not stated)
inactive: [1] 89 % of control | [2] 93 % of control | [3] 91 % of control

O=C(N/N=C/C=C/c1ccccc1)[C@H](O)[C@@H](O)C(=O)N/N=C/C=C/c1ccccc1
inactive: [4] 92 % of control | dose: 100.0 mg/kg/injection, schedule: Q01DX009 (ip), vehicle: acetone 90 % of control | [5] 88 % of control | [6] 93 % of control | dose: 200.0 mg/kg/injection, schedule: Q04DX003 (ip), vehicle: saline 88 % of control | [7] 93 % of control | dose: 400.0 mg/kg/injection, schedule: Q01DX009 (ip), vehicle: acetone 92 % of control | dose: 400.0 mg/kg/injection, schedule: Q04DX003 (ip), vehicle: saline 97 % of control

O=C(OCC(O)C1OC(COC(=O)c2ccccc2)C1O)c1ccccc1 (configuration not stated)
inactive: dose: 100.0 mg/kg/injection, schedule: Q01DX001 (ip), vehicle: saline with Tween-80 101 % of control | dose: 200.0 mg/kg/injection, schedule: Q01DX001 (ip), vehicle: saline with Tween-80 97 % of control | dose: 400.0 mg/kg/injection, schedule: Q01DX001 (ip), vehicle: saline with Tween-80 97 % of control

CC(=O)c1ccc(NC(N)=S)cc1
inactive: dose: 5.0 mg/kg/injection, schedule: Q01DX009 (ip), vehicle: saline with Tween-80 88 % of control | dose: 10.0 mg/kg/injection, schedule: Q01DX009 (ip), vehicle: saline with Tween-80 98 % of control | dose: 20.0 mg/kg/injection, schedule: Q01DX009 (ip), vehicle: saline with Tween-80 103 % of control and 90 % of control | dose: 40.0 mg/kg/injection, schedule: Q01DX009 (ip), vehicle: saline with Tween-80 97 % of control and 104 % of control | dose: 80.0 mg/kg/injection, schedule: Q01DX009 (ip), vehicle: saline with Tween-80 91 % of control

CCCCCCCCC(=O)C[N+](=O)[O-]
inactive: dose: 18.8 mg/kg/injection, schedule: Q01DX009 (ip), vehicle: saline 97 % of control | dose: 18.8 mg/kg/injection, schedule: Q04DX003 (ip), vehicle: saline 106 % of control | dose: 37.5 mg/kg/injection, schedule: Q01DX009 (ip), vehicle: saline 95 % of control | dose: 37.5 mg/kg/injection, schedule: Q04DX003 (ip), vehicle: saline 95 % of control | [8] 93 % of control | dose: 75.0 mg/kg/injection, schedule: Q01DX009 (ip), vehicle: saline 99 % of control | dose: 75.0 mg/kg/injection, schedule: Q04DX003 (ip), vehicle: saline 95 % of control

Cc1ccnc(SCC(=O)O)n1
inactive: [9] 108 % of control | dose: 100.0 mg/kg/injection, schedule: Q04DX003 (ip), vehicle: Klucel (hydroxypropylcellulose) (HPC) 96 % of control | [10] 95 % of control | dose: 200.0 mg/kg/injection, schedule: Q04DX003 (ip), vehicle: Klucel (hydroxypropylcellulose) (HPC) 96 % of control | [11] 90 % of control | dose: 400.0 mg/kg/injection, schedule: Q04DX003 (ip), vehicle: Klucel (hydroxypropylcellulose) (HPC) 95 % of control

CC1C=CCC(C)(C)C1 (configuration not stated)
inactive: [12] 95 % of control | [13] 100 % of control | dose: 200.0 mg/kg/injection, schedule: Q01DX009 (ip), vehicle: carboxymethylcellulose (CMC) 94 % of control | [14] 114 % of control | dose: 400.0 mg/kg/injection, schedule: Q01DX009 (ip), vehicle: carboxymethylcellulose (CMC) 90 % of control | dose: 600.0 mg/kg/injection, schedule: Q01DX009 (ip), vehicle: carboxymethylcellulose (CMC) 92 % of control

Nc1nc(N)c(N=Nc2ccc(S(=O)(=O)Nc3ccccn3)cc2)c(N)n1
inactive: [4] 101 % of control | [6] 95 % of control

[O-]/[N+](=N\Nc1ccccc1)c1ccccc1
inactive: dose: 7.5 mg/kg/injection, schedule: Q01DX009 (ip), vehicle: saline with Tween-80 107 % of control | dose: 15.0 mg/kg/injection, schedule: Q01DX009 (ip), vehicle: saline with Tween-80 104 % of control | dose: 30.0 mg/kg/injection, schedule: Q01DX009 (ip), vehicle: saline with Tween-80 89 % of control | dose: 60.0 mg/kg/injection, schedule: Q01DX009 (ip), vehicle: saline with Tween-80 96 % of control

CCC(=O)Nc1ccc(Cl)cc1OC
inactive: [9] 100 % of control | [10] 102 % of control | [11] 100 % of control

Cc1cc(C)c(C(=O)CCN(C)C)c(C)c1
inactive: dose: 25.0 mg/kg/injection, schedule: Q01DX009 (ip), vehicle: saline 103 % of control | dose: 25.0 mg/kg/injection, schedule: Q04DX003 (ip), vehicle: saline 93 % of control | dose: 50.0 mg/kg/injection, schedule: Q01DX009 (ip), vehicle: saline 96 % of control | dose: 50.0 mg/kg/injection, schedule: Q04DX003 (ip), vehicle: saline 96 % of control | [5] 93 % of control and 104 % of control

CSC1=[N+](C)CCS1
inactive: [8] 106 % of control | dose: 75.0 mg/kg/injection, schedule: Q04DX003 (ip), vehicle: saline with Tween-80 109 % of control | dose: 87.5 mg/kg/injection, schedule: Q01DX009 (ip), vehicle: saline 98 % of control | dose: 150.0 mg/kg/injection, schedule: Q01DX001 (ip), vehicle: saline 107 % of control | dose: 150.0 mg/kg/injection, schedule: Q04DX003 (ip), vehicle: saline with Tween-80 101 % of control | dose: 175.0 mg/kg/injection, schedule: Q01DX009 (ip), vehicle: saline 100 % of control

Cc1ccc(-c2nc3cc(Cl)ccc3c(=O)o2)cc1
inactive: [1] 105 % of control | [2] 102 % of control | [3] 94 % of control

CCCCCCCCCCCCCCCCCC(=O)OCC(COC(=O)CCCCCCCC(CO)CCCCCCCCC)OC(=O)CCCCCCCC(CO)CCCCCCCCC (configuration not stated)
inactive: dose: 100.0 mg/kg/injection, schedule: Q04DX002 (ip), vehicle: Klucel (hydroxypropylcellulose) (HPC) 101 % of control | dose: 200.0 mg/kg/injection, schedule: Q04DX002 (ip), vehicle: Klucel (hydroxypropylcellulose) (HPC) 101 % of control | dose: 400.0 mg/kg/injection, schedule: Q04DX002 (ip), vehicle: Klucel (hydroxypropylcellulose) (HPC) 101 % of control

C=CCSc1nc2c(=O)[nH]cnc2n1C1OC(CO)C(O)C1O (configuration not stated)
inactive: dose: 100.0 mg/kg/injection, schedule: Q01DX005 (ip), vehicle: saline 98 % of control | dose: 200.0 mg/kg/injection, schedule: Q01DX005 (ip), vehicle: saline 101 % of control

C1CC23CSCC12CSC3 (configuration not stated)
inactive: [4] 103 % of control | [6] 111 % of control | [7] 108 % of control

Nc1nc(N)c(CCc2ccccc2)c(=O)[nH]1
inactive: [1] 100 % of control | [2] 94 % of control | [3] 94 % of control

CN1CCC2(CC1)C(C#N)C(=O)NC(=O)C2C#N (configuration not stated)
inactive: [12] 92 % of control | [13] 101 % of control | [14] 95 % of control

CCOC(=O)c1ccc(NC(=O)Nc2cc(C)ccn2)cc1
inactive: [9] 96 % of control | [10] 107 % of control | [11] 105 % of control

CC1CN1P(=O)(Oc1cccc2ccccc12)N1CC1C (configuration not stated)
inactive: [15] 96 % of control | [4] 100 % of control | dose: 178.0 mg/kg/injection, schedule: Q01DX001 (ip), vehicle: saline 101 % of control and 109 % of control | [6] 113 % of control | dose: 267.0 mg/kg/injection, schedule: Q01DX001 (ip), vehicle: saline 101 % of control and 103 % of control | [7] 101 % of control and 104 % of control | dose: 600.0 mg/kg/injection, schedule: Q01DX001 (ip), vehicle: saline 110 % of control and 116 % of control

O=C1OC(=O)C2C1C=C(c1ccccc1)C1C3C=CC(C4C(=O)OC(=O)C34)C21 (configuration not stated)
inactive: [15] 98 % of control | [4] 101 % of control | [6] 104 % of control | [7] 106 % of control

Nc1ccc(N=Nc2ccc(S(=O)(=O)Nc3nccs3)cc2)c(N)n1
inactive: [4] 102 % of control | [6] 96 % of control | [7] 88 % of control

c1cc[c]([Sn]([c]2ccccc2)[c]2ccccc2)cc1.c1ccc([Si](c2ccccc2)c2ccccc2)cc1
inactive: dose: 64.0 mg/kg/injection, schedule: Q04DX002 (ip), vehicle: saline with Tween-80 86 % of control | dose: 160.0 mg/kg/injection, schedule: Q04DX002 (ip), vehicle: saline with Tween-80 86 % of control | dose: 400.0 mg/kg/injection, schedule: Q04DX002 (ip), vehicle: saline with Tween-80 86 % of control

CCCOC(=O)CSC#N
inactive: dose: 5.0 mg/kg/injection, schedule: Q01DX001 (ip), vehicle: saline 106 % of control | dose: 10.0 mg/kg/injection, schedule: Q01DX001 (ip), vehicle: saline 100 % of control
